From ChEMBL document CHEMBL1142899, “4-amino-5-aryl-6-arylethynylpyrimidines: structure-activity relationships of non-nucleoside adenosine kinase inhibitors” (Bioorg Med Chem, 2007)
pIC50: −log10 of the molar value. Active and inactive are the calls of the source. The rule behind the calls is not given here.

What was measured:
[1] = molecular target: T1, Adenosine kinase (Homo sapiens, UniProt P55263); experiment: Inhibition of adenosine kinase in intact cells assessed as adenosine phosphorylation; format: functional, cell-based
[2] = molecular target: T1, Adenosine kinase; experiment: Inhibition of cytosolic adenosine kinase
[3] = Volume of distribution in rat at 5 umol/kg, iv; format: ADME, organism-based; conditions: in vivo, read-out: Vbeta
[4] = Cmax in rat at 5 umol/kg, po; format: ADME, organism-based; design: dose 5 umol/kg, route oral; conditions: in vivo
[5] = system: Rattus norvegicus; experiment: Reduction of formalin-induced nociception in rat at 10 umol/kg, ip by paw flinching test; format: functional; design: scale not given: the % may be the effect or the level left
[6] = system: Rattus norvegicus; experiment: Reduction of formalin-induced nociception in rat upto 30 umol/kg, ip by paw flinching test; format: functional, organism-based
[7] = system: Mus musculus; experiment: Analgesic activity in mouse assessed as maximal protective effect at 30 umol/kg, ip by hot plate test; format: functional
[8] = species on record: Rattus norvegicus; experiment: Analgesic activity in spinal nerve ligated Sprague-Dawley rat by chung assay neuropathic pain animal model; format: functional, organism-based
[9] = Half life in rat at 5 umol/kg, iv; format: ADME, organism-based; conditions: in vivo
[10] = Metabolic stability in human liver microsomes after 1 hr; format: ADME, Microsome; conditions: read-out: Stability
[11] = Metabolic stability in rat hepatocyte after 24 hrs; format: ADME, cell-based; conditions: hepatocytes, read-out: Stability
[12] = Bioavailability in rat at 5 umol/kg, po; format: ADME, organism-based; conditions: in vivo
[13] = Plasma clearance in rat at 5 umol/kg, iv; format: ADME, organism-based

T1 sequence (P55263 whole entry): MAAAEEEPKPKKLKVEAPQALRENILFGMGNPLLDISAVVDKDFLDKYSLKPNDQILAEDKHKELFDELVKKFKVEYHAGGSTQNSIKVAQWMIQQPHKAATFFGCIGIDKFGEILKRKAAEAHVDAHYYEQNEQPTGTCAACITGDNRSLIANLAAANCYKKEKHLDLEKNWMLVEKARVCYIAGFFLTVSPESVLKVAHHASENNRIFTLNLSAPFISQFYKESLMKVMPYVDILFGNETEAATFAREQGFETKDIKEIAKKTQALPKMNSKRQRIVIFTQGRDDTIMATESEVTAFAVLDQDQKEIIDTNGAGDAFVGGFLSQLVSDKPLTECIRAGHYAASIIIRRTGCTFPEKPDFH

SMILES	pIC50 [1]	pIC50 [2]	also measured
CN(C)c1cc(N2CCOCC2)ncc1C#Cc1ncnc(N)c1-c1ccc2c(c1)OCO2	6.67	7.14	
CN(C)c1ccc(C#Cc2ncnc(N3CCOCC3)c2-c2ccc(Cl)cc2)cc1	6.01	8.22	
CN(C)c1ccc(C#Cc2ncnc(N)c2-c2ccccc2Cl)cc1	6.15	7.12	
Nc1ncnc2nc(-c3ccc(N4CCOCC4)nc3)cc(-c3cccc(Br)c3)c12			Vd [3]: 1 L/kg; Cmax [4]: 550 ng/mL
Nc1ncnc(C#Cc2ccc(N3CCOCC3)nc2)c1-c1ccsc1	6.67	7.42	
Nc1ncnc(C#Cc2ccc(N3CCOCC3)nc2)c1-c1cc2ccccc2s1	7.00	9.40	Activity [5]: 49%
COCCN(C)c1ccc(C#Cc2ncnc(N)c2-c2ccc(Cl)cc2)cn1	7.10	9.00	Activity [5]: 48%
CN(C)c1ccc(C#Cc2cc(N)ncn2)cc1		< 6.00	
Nc1ncnc(C#Cc2ccc(N3CCOCC3)nn2)c1-c1ccc(Cl)cc1	6.15	7.35	
CC(C)c1ccc(C#Cc2ncnc(N)c2-c2ccc(Cl)cc2)cc1	< 6.00	7.30	
Cc1ccc(-c2c(N)ncnc2C#Cc2ccc(N(C)C)cc2)cc1	6.48	7.89	
CN(C)c1ccc(C#Cc2cc(NCc3ccccc3)ncn2)cc1		< 6.00	
CN(C)c1ccc(C#Cc2ncnc(N3CCNCC3)c2-c2ccc(Cl)cc2)cc1	< 6.00	8.10	
CN(C)c1ccc(C#Cc2ncnc(NCCc3c[nH]cn3)c2-c2ccc(Cl)cc2)cc1	< 6.00	7.10	
Nc1ncnc(C#Cc2ccc(N3CCOCC3)nc2)c1-c1cccs1	6.78	7.89	Activity [5]: 44%
Nc1ncnc(C#Cc2ccccn2)c1-c1ccc(Cl)cc1	< 6.00	6.30	
COCCN(C)c1cc(N2CCOCC2)ncc1C#Cc1ncnc(N)c1-c1ccc2c(c1)OCO2	6.70	7.00	
Nc1ncnc(C#Cc2ccc(N3CCOCC3)nc2)c1-c1cc2ccccc2o1	6.91	9.00	Activity [5]: 36%
CC(C)NC(=O)Nc1cc(C#Cc2ncnc(N)c2-c2ccc3c(c2)OCO3)cnc1N1CCOCC1	7.06	7.74	

SMILES	pIC50 [1]	pIC50 [2]	also measured
CN(C)c1cc(C#Cc2ncnc(N)c2-c2ccc3c(c2)OCO3)cnc1N1CCOCC1	6.79	7.59	Activity [6]: inactive
CN(C)c1ccc(C#Cc2ncnc(N)c2-c2ccccc2)cc1	< 6.00		
Nc1ncnc(C#Cc2cnc(N3CCOCC3)nc2)c1-c1ccc(Cl)cc1	6.70	8.10	Activity [7]: 100%; Activity [5]: 36%; Activity [8]: inactive
Nc1ncnc(C#Cc2ccc(N3CCOCC3)nc2)c1-c1ccc(Cl)cc1	7.24	8.52	Activity [7]: 100%; Activity [5]: 29%; Activity [8]: inactive
Nc1ncnc(C#Cc2ccc(N3CCOCC3)nc2)c1-c1ccc2c(c1)OCO2	6.92	8.00	Activity [5]: 47%
CN(C)c1ccc(C#Cc2ncnc(N)c2-c2cccc(Cl)c2)cc1	6.26	8.00	
CN(C)c1ccc(C#Cc2ncnc(N)c2-c2ccc3c(c2)OCO3)cc1	6.60		
COc1ccc(-c2c(N)ncnc2C#Cc2ccc(N(C)C)cc2)cc1OC	6.30	7.70	
Cc1nc(N)c(-c2ccccc2)c(C#Cc2ccc(N(C)C)cc2)n1		< 6.00	
CN(C)c1ccc(C#Cc2ncnc(N)c2-c2ccc(Cl)cc2)cn1			Activity [7]: 73%; Activity [5]: 20%; Activity [8]: inactive
CN(C)c1ccc(C#Cc2ncnc(N)c2C(c2ccccc2)c2ccccc2)cc1		6.22	
CC(C)(C)OC(=O)N1CCN(c2ccc(C#Cc3ncnc(N)c3-c3ccc(Cl)cc3)cn2)CC1	< 6.00	7.21	
CN(C)c1ccc(C#Cc2ncnc(N)c2-c2ccc(N(C)C)cc2)cc1	6.62	8.30	
Nc1ncnc(C#Cc2ccc(N3CCOCC3)cc2)c1-c1ccc(Cl)cc1	6.56	7.77	Activity [7]: 67%; Activity [5]: 20%
CN(C)c1ccc(C#Cc2ncnc(N(C)C)c2-c2ccc(Cl)cc2)cc1	< 6.00	6.52	
CN(C)c1ccc(C#Cc2ncnc(NCCc3c[nH]c4ccccc34)c2-c2ccc(Cl)cc2)cc1	< 6.00	7.42	
C#Cc1ncnc(N)c1-c1ccc2c(c1)OCO2		< 6.00	
CN(C)c1ccc(-c2c(N)ncnc2C#Cc2ccc(N3CCOCC3)nc2)cc1		8.70	Activity [7]: 100%; half-life [9]: 30 min; remaining at 1 h [10]: 74%; remaining at 24 h [11]: 21%; Vd [3]: 0.7 L/kg; Cmax [4]: 80 ng/mL; bioavailability [12]: 9%; Activity [5]: 44%; clearance [13]: 16.7 mL/min/kg
Nc1ncnc(C#Cc2cncc(N3CCOCC3)c2)c1-c1ccc(Cl)cc1	6.96	8.10	Activity [5]: 49%
